Source: patent publication US20220396565A1 (Hoffmann-La Roche Inc., priority 2020, published 2022)
Counter-ions that a name gives are not always drawn.

Test system: Acinetobacter baumannii ATCC17978
Assay: Antimicrobial susceptibility testing: 90% growth inhibitory concentration (IC90) determination, Iso-Sensitest broth
Format: cell-based
Settings: 90% growth inhibitory concentration, Acinetobacter baumannii ATCC17978, Iso-Sensitest broth; read-out: ATCC 17978 IC90
Summary of the method: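 Twofold serial dilutions (e.g. 10 to 0.02 μM final) were tested in Iso-Sensitest broth against ~5×10^(5) CFU/ml at 35±2 °C. OD600 was read every 20 min over 16 h. IC90 was derived from growth inhibition during the logarithmic phase.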

Compound `COc1ccc(-c2cnc(C(=O)Nc3ccc(C(=O)N4CCN(C(=O)CN(C)C)CC4)c(Cl)c3)n2C)c(F)c1F` [Example 104, N-[3-chloro-4-[4-[2-(dimethylamino)acetyl]piperazine-1-carbonyl]phenyl]-5-(2,3-difluoro-4-methoxy-phenyl)-1-methyl-imidazole-2-carboxamide trifluoroacetate] has an IC90 of 70 nM.
